Assay results published in US10214529B2, “Small molecules for the treatment of primary cancer and cancer metastasis” (THE BOARD OF REGENTS OF THE UNIVERSITY OF TEXAS SYSTEM, priority 2015, dated 2019).

Key:
[1] = tested on: MDA-MB-231 human breast cancer cells; assay: Transwell cell migration assay; assay type: cell-based; details: MDA-MB-231 cells, 18-20 hr
Experimental: (§1) MDA-MB-231 cells were grown in McCoy's 5A Modified Media (Gibco) supplemented with 10% FBS (Hyclone). Py8119 cells were grown in F12K nutrient media (Gibco) supplemented with 5% Fetal Clone II (Fisher Scientific). All cell lines were incubated in a 5% CO2 incubator at 37° C.
Migration assays were performed in transwell membrane filter inserts in 24-well tissue culture plates (BD Biosciences San Jose, Calif., USA). The transwell membrane filter inserts contained 6.5-mm diameter, 8-μm pore size, […] polycarbonate membranes. Five-hundred microliter breast cancer cell suspensions were added to the upper side of the inserts at a density of 10×10^4 cells/insert and 750 μl CM with or without other compounds was added to the lower wells. Cells were incubated at 37° C. for 18-20 hr. […] The number of migrated cells in 5 fields of view per insert was counted under a light microscope at magnification 10×.

MDA-MB-231 cells [2] = assay: Soft agar colony formation assay (anchorage independent cell growth); assay type: cell-based, human; details: 50 μM compound, about 2 weeks
Experimental: as §1
For anchorage-independent cell growth, MDA-MB-231 cells were plated in 0.4% agarose with complete medium supplemented with 50 μM compound (P1 to P10) on top of a 0.8% agarose base supplemented with complete medium. Cells were maintained for about 2 weeks before staining with p-iodonitrotetrazolium violet (Sigma-Aldrich, St. Louis, Mo.). Images were captured by using a scanner and the numbers of colonies were counted.

MDA-MB-231 cells [3] = assay: Mammary fat pad xenograft assay; assay type: in vivo; details: after 15 days; 500 μl of a 400 μM solution, IP three times a week; MDA-MB-231 xenograft in nude mice
Source text: Four-week-old female athymic nude mice (Harlan Sprague-Dawley, Indianapolis, Ind., USA) were used for the mammary fat pad injections. Four- to five-week old female C57bl/6 mice were used for the intratibial injections. Animals were maintained under the care and supervision of the Laboratory Animal Research facility at the University of Texas Health Science Center, San Antonio, Tex. The animal protocol was approved and monitored by the Institutional Animal Care and Use Committee.
MDA-MB-231 cells were injected subcutaneously in the mammary fat pad of 4-week-old female nu/nu athymic nude mice. Each mouse received bilateral subcutaneous inoculation in both the left and right inguinal mammary fat pad areas with 100 μl of cell suspension containing ˜1×10^7 cells/ml in serum-free media. Animals were randomly assigned to 3 different groups, and solid tumors were allowed to form up to about 5 mm^3 volume before treatments began. Compound P3 400 μmol/500 μl saline, or saline as a control was administered intraperitoneally (IP) three times a week for 3 weeks. The growth of xenograft tumors was monitored twice a week and tumor size was measured with a caliper in two dimensions. Tumor volumes were calculated with the equation V=(L×W^2)×0.5 (mm^3), where L is length and W is width of a tumor.

CCCn1c(=O)c2nc(-c3ccc(OCc4nc5ccccc5[nH]4)cc3)[nH]c2n(CCC)c1=O [Compound P2]
inhibitory effects on cell migration [1]: inhibitory effects | decrease in cell colonies as compared to control (MDA-MB-231 cells [2]): 30%

CCCn1c(=O)c2nc(-c3ccc(OCc4nc5cc(F)ccc5[nH]4)cc3)[nH]c2n(CCC)c1=O [Compound P4]
inhibitory effects on cell migration [1]: inhibitory effects

CCCn1c(=O)c2nc(-c3ccc(OCc4nc5cc(C)ccc5[nH]4)cc3)[nH]c2n(CCC)c1=O [Compound P5]
inhibitory effects on cell migration [1]: inhibitory effects

CCCn1c(=O)c2nc(-c3ccc(OCc4nc5cc(C(F)(F)F)ccc5[nH]4)cc3)[nH]c2n(CCC)c1=O [Compound P3]
reduction in the tumor size compared to control mice (MDA-MB-231 cells [3]): more than 50% | inhibitory effects on cell migration [1]: inhibitory effects | decrease in cell colonies as compared to control (MDA-MB-231 cells [2]): 65%

CCOc1ccc(-c2nc3c(N)ncnc3n2CC2CCC2)cc1 [Compound P9]
inhibitory effects on cell migration [1]: inhibitory effects
